Assay results as given in article PMC3213642 (The Biochemical journal, 2011).

Assays:
FlaI = FlaI (Sulfolobus acidocaldarius, UniProt Q4J9L0, E336A); assay: size-exclusion chromatography and SAXS, hexamerization; type: binding; conditions: SAXS: pH 7.0, 200 mM NaCl, 1 mM ATP, 2.5 mM MgCl2, 20 °C
SAXS = target: the molecule itself; assay: SAXS

| Molecule | size-exclusion chromatography and SAXS, hexamerization (FlaI) | stoichiometry N (SAXS) |
| --- | --- | --- |
| Nc1ncnc2c1ncn2[C@@H]1O[C@H](COP(=O)(O)OP(=O)(O)OP(=O)(O)O)[C@@H](O)[C@H]1O [ATP] | FlaI^E336A with ATP clearly forms a hexameric ring similar to the one determined for GspE |  |
| N-terminal His-tagged FlaI^E336A (Walker B mutant) (enzyme, S. acidocaldarius DSM639, UniProt Q4J9L0 1-513, looked up) MSFVEDYLTKLQERPTIIENPNILKGSKIFNAIYRVDDFVYIHIQSIKSEDGYNQYNVIEPPRPTHDEMEEIEEKFALSIGDKEPPEDTKEKEKLIRSILDKILLRMRLSVPKEYVIYHFIRDKLYTGSLEPLIRDPYIEDISIPGLGHVYIVHKVFGPMRTSIKFENYEELDNLIVSLSEKSYRPVSHNRPVVDASLPDGSRVNFVYGVDISRRGSNLTVRKFSRVPTSITQLIMFGTLSSMMAAYIWTMLDEGMNLFVCGETASGKTTTLNAITAFIPPNLKIVTIEDTPELTVPHSNWVAEVTRETGGEGTIKLFDLLKAALRQRPNYILVGAIRDKEGNVAFQAMQTGHSVMATFHAANITTLIQRLTGYPIEVPKSYINNLNIALFQTALYDKKGNLIRRVVEVDEIIDIDPVTNDVVYIPAFTYDSVQDKMLFAGKGSSYLIENKIAVKRGIDRRNIGLLYDELQMRSRFLNLLVEKKIFNYYDVWDYILRARQMGLEEAIKYVSNI |  | 6 |
